Laboratory results published in patent US20230097253A1, “NOVEL QUINAZOLINE COMPOUND AS THERAPEUTIC AGENT FOR METABOLIC DISORDERS” (BIOWAY., INC, priority 2020, published 2023).

Key:
MRC5 cells = assay: Cytotoxicity in normal cells, CCK8 analysis; format: cell-based; details: 0.5-100 μM, 24 hours, CCK8, compared with the control group, FIG. 2
Protocol: For confirmation of cytotoxicity in normal cells, MRC (i.e., normal lung cells) were cultured in an incubator set at 37° C. with 95% humidity and 5% CO2.
Additionally, MRC5 cells were proliferated to a confluency of 70-80% on a plate using a growth medium (Minimum Essential Medium (MEM) supplemented with 10% fetal bovine serum (FBS), 100 U/ml of penicillin, and 100 μg/ml of streptomycin), and then used for the experiment.
In order to confirm the cytotoxicity of the compound according to an embodiment of the present invention, CCK8 analysis was performed for the prepared MRC5 cells.
First, after culturing MRC5 cells to 70-80% confluency in a 24-well plate, the test material was diluted in a culture medium except for the control group and treated with 0.5 μM, 2.5 μM, 10 μM, 20 μM, 40 μM, 80 μM, and 100 μM.
After 24 hours of treatment of the test material, CCK8 solution was dispensed 10 μL per well and incubated for 2 hours in a state where the light was blocked.
After 2 hours, 200 μL of the culture solution from each well was transferred to a 96 well plate and absorbance was measured at 450 nm.

[1] = system: steatosis-induced Huh7 cells; assay: Protein expression levels (western blot) for MOA confirmation in steatosis-induced liver cells; format: cell-based; details: 250 μM PA, 0.25-40 μM compound, 24 hours, FIG. 1
Protocol: An experiment to confirm the expression levels of proteins in steatosis-induced liver cells was conducted as follows.
To determine the protein expression level for MOA confirmation in steatosis-induced liver cells BW-3290 of the present invention, Huh7 cells were cultured in an incubator set at 37° C., 95% humidity, and 5% CO2.
Additionally, Huh7 cells were proliferated to a confluency of 80-90% on a plate using a growth medium (Dulbecco's modified Eagle's medium (DMEM) supplemented with 10% fetal bovine serum (FBS), 100 U/ml of penicillin, and 100 μg/ml of streptomycin), and then used for the experiment.
To induce steatosis in Huh-7 cells in each well except for control cells, the Huh-7 cells were treated with PA bound to 2% BSA at a concentration of 250 μM except for the control, and the control cells were pretreated with 2% BSA without FA.
The cells in each well were treated with the compounds of the present invention, R- or S-form of BW-3290, 0.25 μM, 0.5 μM, 1 μM, 5 μM, 10 μM, 20 μM, and 40 μM and then cultured for 24 hours. The control cells and PA treated cells were treated with DMSO. All media were aspirated and the cells were gently washed 3 times with cold PBS.
A cold lysis buffer containing 150 mM sodium chloride (NaCl), 5 mM ethylenediaminetetraacetic acid (EDTA), pH 8.0, […] 4-(2-hydroxyethyl)-1-piperazineethanesulfonic acid (HEPES), 1% nonylphenoxypolyethoxylethanol (NP-40), 2 μg/mL aprotinin, 1 μM pepstatin A, 10 μM leupeptin, 1 mM sodium fluoride (NaF), 0.2 mM sodium orthovanadate ([…]), and 1 μM phenylmethylsulfonyl fluoride (PMSF) was added thereto.
A whole cell lysate was collected and gently pipetted at least 10 times to ensure complete lysis. The sample was incubated on ice for 20 minutes and centrifuged 4° C. at 13,000 rpm, for 20 minutes. The supernatant was collected, 5× sodium dodecyl sulfate (SDS) sample buffer containing 50 mM Tris-CI (pH 6.8), 2% SDS, 0.1% bromopheol blue, and 10% glycerol was added to the sample, and boiled at 95° C. for 5 minutes.
The wells of 10% SDS-polyacrylamide gel electrophoresis (SDS-PAGE) were loaded with the same amount of a protein along with the molecular weight marker. The gel was electrophoresed at 100 V for 30 minutes in an electrophoresis chamber (Bio-Rad Laboratories, Hercules, Calif., USA).
A polyvinylidene fluoride (PVDF) membrane (MilliporeSigma, Burlington, Mass., USA) was activated with methanol (MeOH) for 1 minute and washed with a transfer buffer containing 25 mM Tris, 190 mM glycine, and 20% MeOH. The gel was placed in the transfer buffer for 10 minutes.
The transfer sandwich (in the order of paper, gel, membrane, and paper) was assembled and it was checked whether no air bubbles were trapped in the transfer sandwich. The transfer sandwich was placed in a transfer tank (Bio-Rad Laboratories) and ice cubes were placed in the transfer tank to prevent the transfer buffer from being heated. The protein was transferred from the gel to the PVDF membrane at 100 V for 30 minutes.
After washing the PVDF membrane with distilled water, the membrane was blocked for 1 hour at room temperature with a blocking buffer prepared by 5% skim milk (Difco Laboratories, Franklin Lakes, N.J., USA) in TBST containing 0.1% tween 20 (TBST, Sigma-Aldrich).
The membrane was incubated in a buffer in which the primary antibody was appropriately diluted. The membrane of fatty acid synthase (FAS), phosphor-AMP-activated protein kinase (p-AMPK), SIRT1, and SIRT3 was washed 3 times with TBST for 5 minutes each.
The membrane was incubated with a recommended dilution of horseradish peroxidase (HRP)-conjugated secondary mouse antibody in blocking buffer at room temperature for 1 hour.
The membrane was washed 5 times with TBST for 5 minutes each. Excess reagent was removed and the membrane was covered with a clear plastic wrap.
ECL prime western blotting detection reagent (GE Healthcare, Chicago, Ill., USA) was applied according to the manufacturer's recommendations. […]

Compound | cytotoxicity in normal cells (MRC5 cells) | SIRT1 protein expression level [1] | SIRT3 protein expression level [1] | p-AMPK protein expression level [1] | level of FAS (fat synthesis protein) [1]
CC(C)C(Nc1ncnc2nc[nH]c12)c1nc2cccc(Cl)c2c(=O)n1-c1ccccc1 (racemic) [RS-form, 2-(1-((7H-purin-6-yl)amino)-2-methylpropyl)-5-chloro-3-phenylquinazolin-4(3H)-one] | showed some toxicity | – | – | – | –
CC(C)[C@H](Nc1ncnc2nc[nH]c12)c1nc2cccc(Cl)c2c(=O)n1-c1ccccc1 [S-form, (S)-2-(1-((7H-purin-6-yl)amino)-2-methylpropyl)-5-chloro-3-phenylquinazolin-4(3H)-one] | showed some toxicity | increased | increased | increased | –
CC(C)[C@@H](Nc1ncnc2nc[nH]c12)c1nc2cccc(Cl)c2c(=O)n1-c1ccccc1 [R-form of BW-3290, (R)-2-(1-((7H-purin-6-yl)amino)-2-methylpropyl)-5-chloro-3-phenylquinazolin-4(3H)-one] | did not show toxicity | increased | increased | increased | decreased in a concentration-dependent manner
